Source: patent US6638957B1, “Use of compounds with a nitrogen-oxygen heterocycle” (Jomaa Pharmaka GmbH, priority 1999, dated 2003)
In brackets after ≈: the same amount, converted by molar mass. Read-outs that look alike come from different tables or passages of the source.

What was measured:
[1] = tested on: Beta vulgaris; assay: herbicidal activity, Erde Nachauflauf; assay type: in vivo
Description: (§1) The determination of herbicidal activity is performed according to standard procedure. Again the compounds listed on page 9 are tested.

[2] = tested on: Cyperus esculentus; assay: herbicidal activity, Erde Nachauflauf; assay type: in vivo
Description: as §1

[3] = tested on: Amaranthus retroflexus; assay: herbicidal activity, Erde Nachauflauf; assay type: in vivo
Description: as §1

[4] = tested on: Sinapis arvensis; assay: herbicidal activity, Erde Nachauflauf; assay type: in vivo; conditions: Mutarda arvensis
Description: as §1

[5] = tested on: Avena fatua; assay: herbicidal activity, Erde Nachauflauf; assay type: in vivo
Description: as §1

[6] = tested on: Setaria viridis; assay: herbicidal activity, Erde Nachauflauf; assay type: in vivo
Description: as §1

[7] = tested on: Galium aperine; assay: herbicidal activity, Erde Nachauflauf; assay type: in vivo
Description: as §1

[8] = tested on: Zea mays; assay: herbicidal activity, Erde Nachauflauf; assay type: in vivo
Description: as §1

[9] = tested on: Abutilon theophrasti; assay: herbicidal activity, Erde Nachauflauf; assay type: in vivo
Description: as §1

[10] = tested on: Xanthium strumarium; assay: herbicidal activity, Erde Nachauflauf; assay type: in vivo
Description: as §1

[11] = tested on: Alopecurus myosuroides; assay: herbicidal activity, Erde Nachauflauf; assay type: in vivo
Description: as §1

[12] = tested on: Beta vulgaris; assay: herbicidal activity, Erde Vorauflauf; assay type: in vivo
Description: as §1

[13] = tested on: Cyperus esculentus; assay: herbicidal activity, Erde Vorauflauf; assay type: in vivo
Description: as §1

[14] = tested on: Amaranthus retroflexus; assay: herbicidal activity, Erde Vorauflauf; assay type: in vivo
Description: as §1

[15] = tested on: Sinapis arvensis; assay: herbicidal activity, Erde Vorauflauf; assay type: in vivo; conditions: Mutarda arvensis
Description: as §1

[16] = tested on: Avena fatua; assay: herbicidal activity, Erde Vorauflauf; assay type: in vivo
Description: as §1

[17] = tested on: Setaria viridis; assay: herbicidal activity, Erde Vorauflauf; assay type: in vivo
Description: as §1

[18] = tested on: Galium aperine; assay: herbicidal activity, Erde Vorauflauf; assay type: in vivo
Description: as §1

[19] = tested on: Zea mays; assay: herbicidal activity, Erde Vorauflauf; assay type: in vivo
Description: as §1

[20] = tested on: Abutilon theophrasti; assay: herbicidal activity, Erde Vorauflauf; assay type: in vivo
Description: as §1

[21] = tested on: Xanthium strumarium; assay: herbicidal activity, Erde Vorauflauf; assay type: in vivo
Description: as §1

[22] = tested on: Alopecurus myosuroides; assay: herbicidal activity, Erde Vorauflauf; assay type: in vivo
Description: as §1

[23] = tested on: Plasmodium falciparum; assay: antimalaria activity on in vitro cultures, [3H]-hypoxanthine incorporation; assay type: cell-based; conditions: 72 h, inhibition of [3H]-hypoxanthine incorporation, 48 + 24 hours, read-out: IC50(nM) of malaria culture (Plasmodium falciparum)
Description: The antimalaria activity of the compounds listed on page 9 was determined on in vitro cultures of the malaria pathogen Plasmodium falciparum. The depressions of a 96-well microtitre plate were charged with in each case 200 μl of an asynchroneous Plasmodium falciparum culture at a parasitaemia of 0,4% and haematokrit of 2%. A serial dilution series of the compounds in triple steps between concentrations of 100 to 0,14 μmol 1^−1 was then prepared. The plates were incubated at 37° C., 3% CO2 and 5% O2 over a period of 48 hours. 30 μl medium supplemented with 27 μCi ml^−1 [^3H]-hypoxanthine were then added to each well. After incubation for 24 hours the parasites were harvested by filtration on a glass fibre filter and the radioactivity which had been incorporated was measured. The inhibition of the growth of parasites was measured as the percentage inhibition of the incorporation of tritium. Inhibition of the growth of the parasites has been determined as percentage inhibition of incorporation of tritium based on a comparison without the substance. The half-maximum inhibitory concentration (IC50) of the substance was determined by extrapolation of the values.

[24] = tested on: Pseudomonas aeruginosa; assay: antibacterial activity, minimum inhibition concentration in liquid culture; assay type: cell-based; conditions: read-out: MIC(nM) of bacteria culture (Pseudomonas aeruginosa)
Description: A dilution series comprising the concentrations 500, 100, 50, 10 and 0 μmol 1^−1 of the individual compounds in LB medium is introduced into 5 culture microtubes in a volume of 0,5 ml. The tubes were inoculated with 10 μl of an overnight culture of E. coli K12 and shaken overnight at 37° C. The growth of the bacteria was assessed on the basis of the turbidity of the medium. The minimum concentration causing inhibition of bacterial growth was determined (minimum inhibition concentration MIC)
The antibacterial activity of P. aeruginosa was determined in the same manner.

[25] = target: T1, DOXP reductoisomerase of Escherichia coli (UniProt P56139); assay: inhibition of recombinant DOXP reductoisomerase (NADPH oxidation); assay type: biochemical; conditions: 1 mM DOXP, 0,3 mM NADPH, pH 7,5; read-out: IC50(nM) of DOXP reductoisomerase from Helicobacter pilori
T1 sequence (P56139 1-368): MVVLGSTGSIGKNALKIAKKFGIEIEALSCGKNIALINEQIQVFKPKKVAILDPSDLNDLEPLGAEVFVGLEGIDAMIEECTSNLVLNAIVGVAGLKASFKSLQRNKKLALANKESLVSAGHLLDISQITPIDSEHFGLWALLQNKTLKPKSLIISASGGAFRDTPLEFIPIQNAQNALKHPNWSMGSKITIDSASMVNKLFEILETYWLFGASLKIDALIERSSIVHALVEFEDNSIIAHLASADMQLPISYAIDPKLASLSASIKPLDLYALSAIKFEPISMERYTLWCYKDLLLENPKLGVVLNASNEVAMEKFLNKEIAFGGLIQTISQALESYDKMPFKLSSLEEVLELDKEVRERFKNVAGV

[26] = tested on: Echinochloa; assay: herbicidal activity, Hydro Vorauflauf; assay type: in vivo
Description: as §1

[27] = tested on: Solanum; assay: herbicidal activity, Hydro Vorauflauf; assay type: in vivo
Description: as §1

[28] = tested on: Lepidium; assay: herbicidal activity, Hydro Vorauflauf; assay type: in vivo
Description: as §1

[29] = tested on: Reis; assay: herbicidal activity, Hydro Vorauflauf; assay type: in vivo
Description: as §1

[30] = LB medium, overnight at 37° C., turbidity

CN(C)CCCN1OCCCC1=O [Compound 6]
plant injury at 2000 g/ha ([1]; 2000 Gramm/Hektar): 40% | pest or weed control at 2000 g/ha ([2]; 2000 Gramm/Hektar): 0% | pest or weed control at 2000 g/ha ([3]; 2000 Gramm/Hektar): 70% | pest or weed control at 2000 g/ha ([4]; 2000 Gramm/Hektar): 60% | pest or weed control at 2000 g/ha ([5]; 2000 Gramm/Hektar): 60% | pest or weed control at 2000 g/ha ([6]; 2000 Gramm/Hektar): 70% | pest or weed control at 2000 g/ha ([7]; 2000 Gramm/Hektar): 80% | plant injury at 2000 g/ha ([8]; 2000 Gramm/Hektar): 70% | pest or weed control at 2000 g/ha ([9]; 2000 Gramm/Hektar): 60% | pest or weed control at 2000 g/ha ([10]; 2000 Gramm/Hektar): 60% | pest or weed control at 2000 g/ha ([11]; 2000 Gramm/Hektar): 40% | plant injury at 2000 g/ha ([12]; 2000 Gramm/Hektar): 60% | pest or weed control at 2000 g/ha ([13]; 2000 Gramm/Hektar): 0% | pest or weed control at 2000 g/ha ([14]; 2000 Gramm/Hektar): 0% | pest or weed control at 2000 g/ha ([15]; 2000 Gramm/Hektar): 30% | pest or weed control at 2000 g/ha ([16]; 2000 Gramm/Hektar): 0% | pest or weed control at 2000 g/ha ([17]; 2000 Gramm/Hektar): 0% | pest or weed control at 2000 g/ha ([18]; 2000 Gramm/Hektar): 0% | plant injury at 2000 g/ha ([19]; 2000 Gramm/Hektar): 0% | pest or weed control at 2000 g/ha ([20]; 2000 Gramm/Hektar): 0% | pest or weed control at 2000 g/ha ([21]; 2000 Gramm/Hektar): 0% | pest or weed control at 2000 g/ha ([22]; 2000 Gramm/Hektar): 70% | IC50 [23]: 1600 nM | MIC [24, 30]: 2500 nM (≈ 0.466 µg/mL) | IC50 [25]: 130 nM | pest or weed control at 4000 g/ha ([26]; 4000 Gramm/Hektar): 50% | pest or weed control at 4000 g/ha ([27]; 4000 Gramm/Hektar): 0% | pest or weed control at 4000 g/ha ([28]; 4000 Gramm/Hektar): 30% | pest or weed control at 4000 g/ha ([29]; 4000 Gramm/Hektar): 40%

O=C1CCON1CC(O)CP(=O)(O)O (stereo not drawn) [Compound 2]
plant injury at 500 g/ha ([1]; 500 Gramm/Hektar): 0% | pest or weed control at 500 g/ha ([2]; 500 Gramm/Hektar): 0% | pest or weed control at 500 g/ha ([3]; 500 Gramm/Hektar): 0% | pest or weed control at 500 g/ha ([4]; 500 Gramm/Hektar): 30% | pest or weed control at 500 g/ha ([5]; 500 Gramm/Hektar): 30% | pest or weed control at 500 g/ha ([6]; 500 Gramm/Hektar): 90% | pest or weed control at 500 g/ha ([7]; 500 Gramm/Hektar): 0% | plant injury at 500 g/ha ([8]; 500 Gramm/Hektar): 0% | pest or weed control at 500 g/ha ([9]; 500 Gramm/Hektar): 0% | pest or weed control at 500 g/ha ([10]; 500 Gramm/Hektar): 50% | pest or weed control at 500 g/ha ([11]; 500 Gramm/Hektar): 0% | plant injury at 500 g/ha ([12]; 500 Gramm/Hektar): 0% | pest or weed control at 500 g/ha ([13]; 500 Gramm/Hektar): 0% | pest or weed control at 500 g/ha ([14]; 500 Gramm/Hektar): 0% | pest or weed control at 500 g/ha ([15]; 500 Gramm/Hektar): 0% | pest or weed control at 500 g/ha ([16]; 500 Gramm/Hektar): 0% | pest or weed control at 500 g/ha ([17]; 500 Gramm/Hektar): 0% | pest or weed control at 500 g/ha ([18]; 500 Gramm/Hektar): 0% | plant injury at 500 g/ha ([19]; 500 Gramm/Hektar): 0% | pest or weed control at 500 g/ha ([20]; 500 Gramm/Hektar): 0% | pest or weed control at 500 g/ha ([21]; 500 Gramm/Hektar): 0% | pest or weed control at 500 g/ha ([22]; 500 Gramm/Hektar): 0% | IC50 [23]: 1200 nM | MIC [24]: 1600 nM (≈ 0.36 µg/mL) | IC50 [25]: 110 nM | pest or weed control at 1000 g/ha ([26]; 1000 Gramm/Hektar): 0% | pest or weed control at 1000 g/ha ([27]; 1000 Gramm/Hektar): 0% | pest or weed control at 1000 g/ha ([28]; 1000 Gramm/Hektar): 0% | pest or weed control at 1000 g/ha ([29]; 1000 Gramm/Hektar): 0%

CN(C)CC(=O)CN1OCCC(C)(C)C1=O [Compound 8]
plant injury at 1000 g/ha ([1]; 1000 Gramm/Hektar): 40% | pest or weed control at 1000 g/ha ([2]; 1000 Gramm/Hektar): 0% | pest or weed control at 1000 g/ha ([3]; 1000 Gramm/Hektar): 50% | pest or weed control at 1000 g/ha ([4]; 1000 Gramm/Hektar): 90% | pest or weed control at 1000 g/ha ([5]; 1000 Gramm/Hektar): 80% | pest or weed control at 1000 g/ha ([6]; 1000 Gramm/Hektar): 90% | pest or weed control at 1000 g/ha ([7]; 1000 Gramm/Hektar): 70% | plant injury at 1000 g/ha ([8]; 1000 Gramm/Hektar): 70% | pest or weed control at 1000 g/ha ([9]; 1000 Gramm/Hektar): 50% | pest or weed control at 1000 g/ha ([10]; 1000 Gramm/Hektar): 90% | pest or weed control at 1000 g/ha ([11]; 1000 Gramm/Hektar): 70% | plant injury at 1000 g/ha ([12]; 1000 Gramm/Hektar): 30% | pest or weed control at 1000 g/ha ([13]; 1000 Gramm/Hektar): 0% | pest or weed control at 1000 g/ha ([14]; 1000 Gramm/Hektar): 20% | pest or weed control at 1000 g/ha ([15]; 1000 Gramm/Hektar): 30% | pest or weed control at 1000 g/ha ([16]; 1000 Gramm/Hektar): 30% | pest or weed control at 1000 g/ha ([17]; 1000 Gramm/Hektar): 0% | pest or weed control at 1000 g/ha ([18]; 1000 Gramm/Hektar): 0% | plant injury at 1000 g/ha ([19]; 1000 Gramm/Hektar): 30% | pest or weed control at 1000 g/ha ([20]; 1000 Gramm/Hektar): 0% | pest or weed control at 1000 g/ha ([21]; 1000 Gramm/Hektar): 0% | pest or weed control at 1000 g/ha ([22]; 1000 Gramm/Hektar): 30% | IC50 [23]: 700 nM | MIC [24, 30]: 7300 nM (≈ 1.67 µg/mL) | IC50 [25]: 24 nM | pest or weed control at 2000 g/ha ([26]; 2000 Gramm/Hektar): 40% | pest or weed control at 2000 g/ha ([27]; 2000 Gramm/Hektar): 30% | pest or weed control at 2000 g/ha ([28]; 2000 Gramm/Hektar): 30% | pest or weed control at 2000 g/ha ([29]; 2000 Gramm/Hektar): 0%
